{
  "source": "patent US10736968B2",
  "about": "“Cellular signalling inhibitors, their formulations and methods thereof” (INVICTUS ONCOLOGY PVT. LTD., priority 2016, dated 2020)",
  "biological_target": "T1, CSF1R (Mus musculus, UniProt P09581)",
  "T1 construct": "endogenous in cells",
  "T1 sequence (P09581 20-977)": "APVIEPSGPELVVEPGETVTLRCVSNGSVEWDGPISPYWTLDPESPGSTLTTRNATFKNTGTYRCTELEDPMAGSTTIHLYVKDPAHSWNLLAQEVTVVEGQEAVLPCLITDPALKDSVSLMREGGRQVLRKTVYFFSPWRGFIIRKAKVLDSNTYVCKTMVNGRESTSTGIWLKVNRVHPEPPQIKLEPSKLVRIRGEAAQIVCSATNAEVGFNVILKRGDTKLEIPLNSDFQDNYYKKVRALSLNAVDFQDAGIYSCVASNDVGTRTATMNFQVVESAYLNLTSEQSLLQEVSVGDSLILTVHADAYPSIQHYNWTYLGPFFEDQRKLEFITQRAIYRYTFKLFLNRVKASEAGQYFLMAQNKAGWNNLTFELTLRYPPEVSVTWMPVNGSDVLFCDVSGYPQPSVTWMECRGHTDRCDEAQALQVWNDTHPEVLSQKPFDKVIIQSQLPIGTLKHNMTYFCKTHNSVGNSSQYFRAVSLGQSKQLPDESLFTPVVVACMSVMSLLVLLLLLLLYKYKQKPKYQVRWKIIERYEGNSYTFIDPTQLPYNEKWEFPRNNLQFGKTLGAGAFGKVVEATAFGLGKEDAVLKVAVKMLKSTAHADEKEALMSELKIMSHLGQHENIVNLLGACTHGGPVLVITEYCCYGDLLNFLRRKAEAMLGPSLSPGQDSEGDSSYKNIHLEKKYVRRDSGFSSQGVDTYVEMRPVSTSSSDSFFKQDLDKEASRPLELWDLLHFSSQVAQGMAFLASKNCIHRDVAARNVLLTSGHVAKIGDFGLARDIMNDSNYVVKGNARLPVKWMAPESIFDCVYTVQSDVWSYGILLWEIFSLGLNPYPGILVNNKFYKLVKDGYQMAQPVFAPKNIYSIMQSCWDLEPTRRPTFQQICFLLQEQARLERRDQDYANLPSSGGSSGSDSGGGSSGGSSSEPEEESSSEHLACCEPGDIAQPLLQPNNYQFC",
  "assay": "CSF1R phosphorylation in RAW264.7 cells after CSF-1 stimulation (Western blot)",
  "format": "cell-based",
  "details": "67 nM, different time points, then CSF1 10 ng/ml for 20 min",
  "method": "FIG. 2. (a) Expression of phospho-CSF1R in RAW264.7 cells at different time points post-treatment with mCSF. (b-c) Treatment with either BLZ-945 (a current gold standard small molecule inhibitor of CSF1R) or AK750 (the formulated form of BLN101) across different time points followed by CSF-1 (10 ng/mL) stimulation for 20 minutes. After stimulation the cells were washed with cold PBS and the cell lysates were collected.\nActivity Studies of Compound of Formula I • Efficacy of BLN101 vs BLZ945 on the ability to inhibit CSF1R in vitro is studied. RAW264.7 cells are treated with BLZ945 (67 nM) or BLN101 (67 nM) for different time points, at the end of which the cells were exposed to CSF1 (10 ng/ml) for 20 min. The cells were then lysed and analyzed for phosphorylated CSF1R levels. […] Efficacy of BLN101 (in formulation AK750) vs BLZ945 on increase in iNOS expression in vitro is studied. It is observed that exposure to Tumor Conditioned Media over 24 h decreases INOS levels. Measurement of the expression of iNOS in RAW264.7 cells at different time points after treatment with B-16-tumour conditioned media followed by BLZ-945 or BLN101 (as AK750 formulation) treatment across different time points. […] At different time-points, the cells are harvested and analyzed the population for M1 (MHCII+, CD86+, CD80+) or M2 (CD206+) markers using fluorescence activated cell sorting (FIG. 5d). […]",
  "data": [
    {"compound": "CNC(=O)c1cc(Oc2ccc3nc(NC4CCCC[C@H]4OC(=O)CCC(=O)O[C@H]4CC[C@@]5(C)C(=CC[C@H]6[C@@H]7CC[C@H](C(C)CCCC(C)C)[C@@]7(C)CC[C@@H]65)C4)sc3c2)ccn1", "note": "(stereo in doubt) [BLN101]", "values": [
      {"measurement": "inhibition of CSF1R (phosphorylated CSF1R levels)", "value": "sustained and statistically significantly greater inhibition of CSF1R as compared with BLZ945"},
      {"measurement": "inhibition of CSF1R (phosphorylated CSF1R levels)", "setting": "listed as BLZ101", "value": "potent inhibitor of CSF1R"}
    ]}
  ]
}
